Source: the supplement of paper PMC10307832

Columns and labels:
Experiment in all cases: relative viability (nuclei count vs DMSO), 5 days (fraction); higher = more cells survive
[1] = compound: C1CC2=C(C1)C=C(C=C2)OC3=NC(=C4C(=N3)N(C=N4)CC5=CC=C(C=C5)C6=CC=CC=C6)N[C@@H](CC7=CC=CC=C7)CO [QS11] + CCNC(=O)c1noc(-c2cc(C(C)C)c(O)cc2O)c1-c1ccc(CN2CCOCC2)cc1 [Luminespib] (partner 0.01 µM)
Summary of the method: (§1)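 Relative viability was taken as the ratio of nuclei in treated wells to nuclei in vehicle wells. Lung cancer cell lines in 1536-well plates received compounds by pin tool one day after seeding, either one drug alone or a fixed anchor-drug dose plus five library-drug doses (not always all listed) in √10 steps. Nuclei were counted on 4× images after 5 days of treatment, and values are medians of duplicate plates.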

[2] = compound: C[As](C)SC[C@H](NC(=O)CC[C@H](N)C(=O)O)C(=O)NCC(=O)O [Darinaparsin] + O=C(CCCCCCC(=O)Nc1ccccc1)NO [Vorinostat] (partner 1 µM)
Summary of the method: as §1

[3] = compound: CC1=C(C=C(C=C1)NC(=O)C2=CC(=CC=C2)C(C)(C)C#N)NC3=CC4=C(C=C3)N=CN(C4=O)C [AZ628] + COc1cccc2cc(-c3nc([C@H]4CC[C@H](C(=O)O)CC4)n4ncnc(N)c34)[nH]c12 [OSI-027] (partner 0.5 µM)
Summary of the method: as §1

[4] = compound: C1CC2=C(C1)C=C(C=C2)OC3=NC(=C4C(=N3)N(C=N4)CC5=CC=C(C=C5)C6=CC=CC=C6)N[C@@H](CC7=CC=CC=C7)CO [QS11] + C[C@@H](Oc1cc(-c2cnn(C3CCNCC3)c2)cnc1N)c1c(Cl)ccc(F)c1Cl [Crizotinib] (partner 1 µM)
Summary of the method: as §1

Cell Line | relative viability ([1]; first compound 0.08 µM) | relative viability ([1]; first compound 0.253 µM) | relative viability ([1]; first compound 0.8 µM) | relative viability ([1]; first compound 2.53 µM) | relative viability ([1]; first compound 8 µM) | relative viability ([2]; first compound 0.08 µM) | relative viability ([2]; first compound 0.8 µM) | relative viability ([2]; first compound 2.53 µM) | relative viability ([2]; first compound 8 µM) | relative viability ([3]; first compound 0.08 µM) | relative viability ([3]; first compound 0.253 µM) | relative viability ([3]; first compound 0.8 µM) | relative viability ([3]; first compound 2.53 µM) | relative viability ([3]; first compound 8 µM) | relative viability ([4]; first compound 0.08 µM) | relative viability ([4]; first compound 0.253 µM) | relative viability ([4]; first compound 0.8 µM) | relative viability ([4]; first compound 2.53 µM) | relative viability ([4]; first compound 8 µM)
NCI-H522 | 1.01 | 1.35 | 0.945 | 0.98 | 1.17 | 0.85 | 0.909 | 0.798 | 0.905 | 0.799 | 0.668 | 0.658 | 0.644 | 0.641 | – | – | – | – | –
SK-MES-1 | 0.553 | 0.927 | 0.685 | 0.883 | 0.823 | 1.11 | 1.07 | 0.924 | 1.43 | 0.599 | 0.593 | 0.653 | 0.572 | 0.297 | 1.12 | 0.98 | 0.993 | 0.977 | 0.929
UMC-11 | 1.01 | 1.13 | 0.995 | 1.27 | 1.12 | 0.339 | 0.314 | 0.384 | 0.308 | 0.468 | 0.496 | 0.46 | 0.464 | 0.382 | 0.724 | 0.616 | 0.653 | 0.679 | 0.686
LK-2 | 0.164 | 0.229 | 0.178 | 0.172 | 0.146 | 0.283 | 0.268 | 0.256 | 0.263 | 0.191 | 0.234 | 0.234 | 0.187 | 0.198 | 0.25 | 0.221 | 0.215 | 0.266 | 0.214
CAL-12T | 0.608 | 0.578 | 0.478 | 0.362 | 0.551 | 1.09 | 0.707 | 0.785 | 0.931 | 0.891 | 0.572 | 0.408 | 0.345 | 0.267 | 0.579 | 0.733 | 0.626 | 0.394 | 0.512
PC-3 [JPC-3] | 0.708 | 0.729 | 0.663 | 0.718 | 0.703 | 0.903 | 0.739 | 0.945 | 0.872 | 0.791 | 0.731 | 0.753 | 0.815 | 0.683 | 0.957 | 0.97 | 0.949 | 1.03 | 1.01
NCI-H1651 | 1.05 | 0.923 | 0.75 | 0.714 | 0.752 | 0.523 | 0.558 | 0.58 | 0.571 | 0.577 | 0.703 | 0.649 | 0.579 | 0.659 | 0.888 | 0.95 | 0.79 | 0.903 | 0.899
